# Test results: US10028992B2, “Methods of treating muscular dystrophy” (BOARD OF REGENTS OF THE NEVADA SYSTEM OF HIGHER EDUCATION …, priority 2012, dated 2018)
# Test system: α7 integrin promoter
# Experiment: muscle cell-based assay: α7βgal+/− myoblasts/myotubes, LacZ reporter, β-galactosidase cleavage of FDG
# Parameters: species or system mouse; Results in α7+/− β-galactosidase assay: scale not given here
# Conditions: for Results in a α7+/− β-galactosidase assay, Myotubes, 0.5 uM: compound at 0.5 uM; for Results in a α7+/− β-galactosidase assay, Myotubes, 1 uM: compound at 1 uM; for Results in a α7+/− β-galactosidase assay, Myotubes, 5 uM: compound at 5 uM; for Results in a α7+/− β-galactosidase assay, Myotubes, 10 uM: compound at 10 uM; for Results in a α7+/− β-galactosidase assay, Myotubes, 20 uM: compound at 20 uM; for Results in a α7+/− β-galactosidase assay, Myotubes, 40 uM: compound at 40 uM; for Results in α7+/− β-galactosidase assay: Myoblasts; for EC50: given as log AC50 (negative values), read-out: Fit LogAC50 (converted); for Fit Curve Class: key not given; for AC50: log of AC50, given with negative sign, unit of AC50 not given, read-out: Fit Log AC50 (converted)
# Procedure: An α7 integrin null mouse was produced in which exon 1 of the gene encoding the α7 integrin was replaced by the LacZ reporter. In these mice, all the transcriptional regulatory elements of the α7 integrin promoter were retained, allowing β-galactosidase to report expression of 7 integrin. A primary myoblast cell line (designated α7βgal^+/−) isolated from 10 day old α7^+/− pups were analyzed for the ability of β-galactosidase to report α7 integrin expression. α7βgal^+/− myoblasts were differentiated and subjected to X-gal staining and western analysis (FIGS. 1A and 1B).
# The activity of the α7 integrin promoter was measured by β-galactosidase cleavage of the non-fluorescent compound fluorescein di-β-D-galactopyranoside (FDG) to fluorescein. This assay was used to screen compound libraries to identify molecules that up-regulate α7 integrin expression in muscle.
# Also evaluated was the effect of various isoforms of laminin and the ligand for α7β1 integrin on integrin expression. Positive hits were subjected to dose-response analysis, western analysis and a myostatin counterscreen (a negative regulator of muscle growth).
# [1] = curve fit, activity at zero concentration
# [2] = Table 12, fitted activity at zero concentration
# [3] = Table 12 Compound data, concentration-response curve fit
structure (smiles),measurement,setting,value
CN(CCC1CCCCO1)C(=O)CCc1nnc(CCCCc2ccccc2)o1 (stereo not drawn) [drawing 407],"Results in a α7+/− β-galactosidase assay, Myotubes, 0.5 uM",,0.03419
same,"Results in a α7+/− β-galactosidase assay, Myotubes, 1 uM",,0.03033
same,"Results in a α7+/− β-galactosidase assay, Myotubes, 5 uM",,−0.2337
same,"Results in a α7+/− β-galactosidase assay, Myotubes, 10 uM",,−0.1125
same,"Results in a α7+/− β-galactosidase assay, Myotubes, 20 uM",,−0.1283
same,"Results in a α7+/− β-galactosidase assay, Myotubes, 40 uM",,−0.1202
CN1CCN(c2ccccc2/C=C2\C(=O)Nc3ccccc32)CC1 [drawing 671],Results in α7+/− β-galactosidase assay,0.5 uM,0.1788
same,Results in α7+/− β-galactosidase assay,1 uM,0.04505
same,Results in α7+/− β-galactosidase assay,5 uM,−0.08497
same,Results in α7+/− β-galactosidase assay,10 uM,−0.09387
same,Results in α7+/− β-galactosidase assay,20 uM,−0.1256
same,Results in α7+/− β-galactosidase assay,40 uM,−0.3824
CCC(=O)c1ccc(OCC(O)CN2CCOC(C)C2)cc1.O=C(O)C(=O)O (stereo not drawn) [drawing 611],Results in α7+/− β-galactosidase assay,0.5 uM,0.222
same,Results in α7+/− β-galactosidase assay,1 uM,0.08832
same,Results in α7+/− β-galactosidase assay,5 uM,−0.02345
same,Results in α7+/− β-galactosidase assay,10 uM,−0.1332
same,Results in α7+/− β-galactosidase assay,20 uM,0.0354
same,Results in α7+/− β-galactosidase assay,40 uM,0.02206
CCNC(=O)C(=O)Nc1cc2c3c(c1)CCN3C(=O)CC2 [drawing 690],Results in α7+/− β-galactosidase assay,0.5 uM,0.05836
same,Results in α7+/− β-galactosidase assay,1 uM,0.1657
same,Results in α7+/− β-galactosidase assay,5 uM,0.2771
same,Results in α7+/− β-galactosidase assay,10 uM,0.06388
same,Results in α7+/− β-galactosidase assay,20 uM,0.05069
same,Results in α7+/− β-galactosidase assay,40 uM,0.005609
COc1ccc(/N=N/c2ccc(N)nc2N)cc1 [drawing 368],"Results in a α7+/− β-galactosidase assay, Myotubes, 0.5 uM",,0.1561
same,"Results in a α7+/− β-galactosidase assay, Myotubes, 1 uM",,0.1699
same,"Results in a α7+/− β-galactosidase assay, Myotubes, 5 uM",,−0.00041
same,"Results in a α7+/− β-galactosidase assay, Myotubes, 10 uM",,−0.06379
same,"Results in a α7+/− β-galactosidase assay, Myotubes, 20 uM",,−0.1224
same,"Results in a α7+/− β-galactosidase assay, Myotubes, 40 uM",,−0.03271
Cn1ccc(C(=O)Nc2cccnc2Cl)n1 [Compound 140],EC50,Mus musculus,10 µM
same,Score,Table 12 compound data,42
same,Fit Curve Class,curve class number,2.2
same,Fit HillSlope,curve fit,2.7868
same,Fit Zero Activity [%],[1],−4.0391%
O=S(=O)(N/C(=N/C1CCCCC1)c1ccccc1F)c1ccccc1 [drawing 334],"Results in a α7+/− β-galactosidase assay, Myotubes, 0.5 uM",,0.1113
same,"Results in a α7+/− β-galactosidase assay, Myotubes, 1 uM",,0.07899
same,"Results in a α7+/− β-galactosidase assay, Myotubes, 5 uM",,0.00127
same,"Results in a α7+/− β-galactosidase assay, Myotubes, 10 uM",,0.03577
same,"Results in a α7+/− β-galactosidase assay, Myotubes, 20 uM",,−0.0234
same,"Results in a α7+/− β-galactosidase assay, Myotubes, 40 uM",,−0.0349
O=C(Nc1cc(-c2nc3ccccc3s2)ccc1Cl)c1ccc2c(c1)OCO2 [drawing 418],"Results in a α7+/− β-galactosidase assay, Myotubes, 0.5 uM",,0.01013
same,"Results in a α7+/− β-galactosidase assay, Myotubes, 1 uM",,−0.09877
same,"Results in a α7+/− β-galactosidase assay, Myotubes, 5 uM",,0.05089
same,"Results in a α7+/− β-galactosidase assay, Myotubes, 10 uM",,0.3348
same,"Results in a α7+/− β-galactosidase assay, Myotubes, 20 uM",,−0.3294
same,"Results in a α7+/− β-galactosidase assay, Myotubes, 40 uM",,−0.3941
CCN(C(=O)c1ccc(S(=O)(=O)N(C)C)cc1)C(C)C(=O)Nc1ccc(C)cc1 (stereo not drawn) [drawing 556],Results in α7+/− β-galactosidase assay,0.5 uM,−0.05004
same,Results in α7+/− β-galactosidase assay,1 uM,−0.1349
same,Results in α7+/− β-galactosidase assay,5 uM,−0.02565
same,Results in α7+/− β-galactosidase assay,10 uM,0.2444
same,Results in α7+/− β-galactosidase assay,20 uM,−0.07832
same,Results in α7+/− β-galactosidase assay,40 uM,−0.2867
Nc1cccc(/C=C/C(=O)O)c1 [drawing 676],Results in α7+/− β-galactosidase assay,0.5 uM,0.1361
same,Results in α7+/− β-galactosidase assay,1 uM,0.05647
same,Results in α7+/− β-galactosidase assay,5 uM,−0.05605
same,Results in α7+/− β-galactosidase assay,10 uM,0.2478
same,Results in α7+/− β-galactosidase assay,20 uM,−0.08666
same,Results in α7+/− β-galactosidase assay,40 uM,−0.2769
COc1ccccc1CNS(=O)(=O)c1ccc(Cl)s1 [Compound 103],AC50,"Mus musculus, Table 12",6.31 µM
same,Fit HillSlope,"Table 12, curve fit",1.8265
same,Fit Zero Activity [%],[2],−23.0045%
same,Fit Curve Class,Table 12,2.1
same,Score,[3],43
CC(C)/N=C(\S)NN=C1CCCCCCCCCCC1 [Compound 36],AC50,"Mus musculus, Table 12",3.16 µM
same,Emax,"Mus musculus, read-out: Max Response [%]",78.6%
same,Fit HillSlope,"Table 12, curve fit",1.4163
same,Fit Zero Activity [%],[2],5.5%
same,Fit Curve Class,Table 12,1.2
same,Score,[3],64
O=C(CNC(=O)c1cccc(F)c1)N/N=C/c1cc(Br)ccc1OCc1ccccc1 [Compound 216],EC50,Mus musculus,10 µM
same,Score,Table 12 compound data,42
same,Fit Curve Class,curve class number,2.2
same,Fit HillSlope,curve fit,0.8
same,Fit Zero Activity [%],[1],3.67%
Cc1[nH]c2ccc(F)cc2c1CCN(Cc1ccco1)/C(S)=N/C(C)(C)C [drawing 639],Results in α7+/− β-galactosidase assay,0.5 uM,0.1665
same,Results in α7+/− β-galactosidase assay,1 uM,0.002443
same,Results in α7+/− β-galactosidase assay,5 uM,−0.08261
same,Results in α7+/− β-galactosidase assay,10 uM,−0.1049
same,Results in α7+/− β-galactosidase assay,20 uM,−0.2055
same,Results in α7+/− β-galactosidase assay,40 uM,−0.2801
